Columns and labels:
GGT = assay: Enzymatic reaction with purified GGT, LC-MS analysis of products; format: biochemical
Experimental: (§1) Next, enzymatic reactions were carried out under the following conditions using the three compounds synthesized and purified enzymes.
(§2) Final compound concentration: 100 μM
(§3) Final enzyme concentration: 4 nM (β-Gal), 8.5 μg/mL (DPP-IV), 10 U/mL (GGT)
(§4) Reaction temperature: 37° C.
(§5) (2) Enzymatic Reaction Using DPP-IV and GGT
(§6) Instrument: 1260 Infinity (manufactured by Agilent Technologies, Inc.)
(§7) Column: Poroshell 120, 4.6×100 mm (manufactured by Agilent Technologies, Inc.)
(§8) Mobile phase A: water (0.01M ammonium formate)
(§9) Mobile phase B: 80% acetonitrile/water (0.01M ammonium formate)
Next, enzymatic reactions were carried out under the following conditions using the benzyl-position leaving group-converted derivatives synthesized and purified enzyme.
Final enzyme concentration: 10 U/mL (GGT)
Enzymatic reaction using GGT

[1] = tested on: SHIN3 cells (high GGT expression) and H226 cells (low GGT expression); assay: CCK-8 assay, cells with high and low GGT expression; format: cell-based, human
Experimental: (§10) Next, it was verified whether compounds 1-3 can change the cell viability by functioning as a prodrug when administered to cells with high and low enzyme expression. The efficacy studies were carried out by using a general colorimetric method called CCK-8 assay (method for quantifying the dehydrogenase activity inside living cells through reduction of colorless WST-8 to orange formazan) to quantify the number of living cells. The CCK-8 assay evaluation method is described below.
(§11) The B-galactosidase-activated prodrug was evaluated using HEK/lac Z cells (cells derived from human kidney cells, high β-Gal expression) and HEK293 cells (cells derived from human kidney cells, low β-Gal expression). The DPP-IV-activated prodrug was evaluated using H226 cells (human lung squamous cell carcinoma cells, high DPP-IV expression) and H460 cells (human non-small cell epithelial lung cancer cells, low DPP-IV expression). The GGT-activated prodrug was evaluated using SHIN3 cells (human ovarian cancer cells, high GGT expression) and H226 cells (human lung squamous cell carcinoma cells, low GGT expression).
Each type of cell was seeded in 96-well plates (cell density: 1.0×10^4/well) and incubated overnight. The medium was exchanged for fresh medium, and the synthesized derivatives were added (final concentration 1-50 μM, 0.5% DMSO, n=3). After culturing the cells for another 24 hours, a Cell Counting Kit-8 (10 μL/well, manufactured by […]) was added. After 2.5 hours, the 450 nm absorbance was measured by a plate reader, and the number of viable cells was quantified.
Next, benzyl-position leaving group-converted derivatives were subjected to the CCK-8 assay described above.

HEK/lac Z cells = assay: CCK-8 assay, cells with high β-Gal expression; format: cell-based, human; conditions: FIG. 5
Experimental: as §10, §11
(§12) Each type of cell was seeded in 96-well plates (cell density: 1.0×10^4/well) and incubated overnight. […] After 2.5 hours, the 450 nm absorbance was measured by a plate reader, and the number of viable cells was quantified.

HEK293 cells = assay: CCK-8 assay, cells with low β-Gal expression; format: cell-based, human; conditions: 50 μM, after 24 hours, FIG. 5
Experimental: as §10, §11, §12

β-Gal = β-Gal (Escherichia coli, UniProt P00722); assay: Enzymatic reaction with purified β-galactosidase, LC-MS analysis of products; format: biochemical; conditions: 100 μM compound, 4 nM β-Gal, 37° C.; reaction product 2-hydroxybenzyl alcohol; FIG. 4
Experimental: as §1, §2, §3, §4
(1) Enzymatic Reaction Using β-Galactosidase
Instrument: ACQUITY UPLC (manufactured by Waters Corporation)
as §7, §8, §9

DPP-IV = DPP-IV (Homo sapiens, UniProt P27487); assay: Enzymatic reaction with purified DPP-IV, LC-MS analysis of products; format: biochemical; conditions: 100 μM compound, 8.5 μg/mL DPP-IV, 37° C.; reaction product 2-aminobenzyl alcohol; FIG. 4
Experimental: as §1, §2, §3, §4, §5, §6, §7, §8, §9

[2] = tested on: H226 cells (high DPP-IV expression) and H460 cells (low DPP-IV expression); assay: CCK-8 assay, cells with high and low DPP-IV expression; format: cell-based, human; conditions: H226 (high DPP-IV) vs H460 (low DPP-IV), 1-50 μM, 24 hours; FIG. 6
Experimental: as §10, §11, §12

SHIN3 cells = assay: Administration study in peritoneal dissemination model mice; format: in vivo; conditions: 5 mg/kg intraperitoneally each day from day 7, imaged day 21 with gGlu-HMRG, vs PBS; FIG. 17
Experimental: Peritoneal dissemination model mice were created by intraperitoneal administration of SHIN3 cells (cancer cell line derived from ovarian cancer, high GGT activity) suspended in PBS. From day seven after cell dissemination, 5 mg/kg of gGlu-FMA or PBS (control) was administered intraperitoneally each day. On day 21 after cell dissemination, gGlu-HMRG was administered intraperitoneally, and the mice were sacrificed ten minutes later. After laparotomy, fluorescence images were acquired by a Maestro in vivo imaging device (FIG. 16).

[3] = tested on: cocultured SHIN3 cells and H226 cells; assay: Cell death observation under coculture conditions, time-lapse fluorescence imaging with EthD-1 (protocol 2); format: cell-based, human; conditions: coculture of high and low GGT expression cells, 24 hr time-lapse imaging; FIG. 9
[4] = tested on: SHIN3 cells and H226 cells; assay: Cell death observation by fluorescence imaging over time with EthD-1 (protocol 1); format: cell-based, human; conditions: SHIN3 vs H226 cultured separately, imaging over 24 hr; FIG. 8
From the text: Since changing the types of cells and standardizing the medium to RPMI-1640 made coculture possible, the aim then became to observe cell death under coculture conditions and to construct a quantitative method. It was decided to conduct these studies using compound 3 for GGT (gGlu-FMA) based on the results obtained thus far, and the possibility of visually observing cell death by observation of fluorescence using one type of cell was first explored as an initial study (FIG. 8).
Scan mode: xyzt, x=512, y=512, z=4, t=24. Scale bar: 50 μm.

[5] = tested on: SHIN3 cells and H226 cells; assay: Efficacy evaluation by flow cytometry (protocol 3); format: cell-based, human; conditions: 25 μM, 24-hr incubation; compared with +100 μM GGsTop and 0.25% DMSO control; FIG. 10
Experimental: On the other hand, since it is impossible to quantitatively discuss the extent to which the survival rates of high-expression/low-expression cells have changed, the present inventors studied whether this could be evaluated using flow cytometry (FIG. 10).
(Top) 25 μM model compound, (middle) 25 μM model compound+100 μM GGsTop, (bottom) 0.25% DMSO control. Analysis was carried out after 24-hr incubation.

Chain of DPP-IV (P27487 whole entry, species assumed): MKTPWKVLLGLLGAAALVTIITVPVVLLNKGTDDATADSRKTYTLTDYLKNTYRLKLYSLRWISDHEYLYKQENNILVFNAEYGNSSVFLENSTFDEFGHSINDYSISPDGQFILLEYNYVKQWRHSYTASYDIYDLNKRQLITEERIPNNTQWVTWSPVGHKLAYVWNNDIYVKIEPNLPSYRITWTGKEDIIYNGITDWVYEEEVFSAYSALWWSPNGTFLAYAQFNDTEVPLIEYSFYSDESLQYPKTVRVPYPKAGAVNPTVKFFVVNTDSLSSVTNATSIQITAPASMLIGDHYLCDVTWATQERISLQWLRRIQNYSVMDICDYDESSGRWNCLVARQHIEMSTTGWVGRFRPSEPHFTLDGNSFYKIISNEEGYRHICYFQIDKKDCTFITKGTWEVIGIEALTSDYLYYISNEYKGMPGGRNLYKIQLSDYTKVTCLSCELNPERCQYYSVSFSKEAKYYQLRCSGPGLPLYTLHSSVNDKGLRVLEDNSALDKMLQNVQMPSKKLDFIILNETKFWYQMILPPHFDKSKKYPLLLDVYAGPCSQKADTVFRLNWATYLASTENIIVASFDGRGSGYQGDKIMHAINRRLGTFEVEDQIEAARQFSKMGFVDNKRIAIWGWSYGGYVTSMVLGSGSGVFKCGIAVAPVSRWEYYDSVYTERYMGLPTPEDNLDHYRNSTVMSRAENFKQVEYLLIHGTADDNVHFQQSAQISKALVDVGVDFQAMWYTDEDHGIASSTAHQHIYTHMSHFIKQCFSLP
Chain of β-Gal (P00722 2-1024): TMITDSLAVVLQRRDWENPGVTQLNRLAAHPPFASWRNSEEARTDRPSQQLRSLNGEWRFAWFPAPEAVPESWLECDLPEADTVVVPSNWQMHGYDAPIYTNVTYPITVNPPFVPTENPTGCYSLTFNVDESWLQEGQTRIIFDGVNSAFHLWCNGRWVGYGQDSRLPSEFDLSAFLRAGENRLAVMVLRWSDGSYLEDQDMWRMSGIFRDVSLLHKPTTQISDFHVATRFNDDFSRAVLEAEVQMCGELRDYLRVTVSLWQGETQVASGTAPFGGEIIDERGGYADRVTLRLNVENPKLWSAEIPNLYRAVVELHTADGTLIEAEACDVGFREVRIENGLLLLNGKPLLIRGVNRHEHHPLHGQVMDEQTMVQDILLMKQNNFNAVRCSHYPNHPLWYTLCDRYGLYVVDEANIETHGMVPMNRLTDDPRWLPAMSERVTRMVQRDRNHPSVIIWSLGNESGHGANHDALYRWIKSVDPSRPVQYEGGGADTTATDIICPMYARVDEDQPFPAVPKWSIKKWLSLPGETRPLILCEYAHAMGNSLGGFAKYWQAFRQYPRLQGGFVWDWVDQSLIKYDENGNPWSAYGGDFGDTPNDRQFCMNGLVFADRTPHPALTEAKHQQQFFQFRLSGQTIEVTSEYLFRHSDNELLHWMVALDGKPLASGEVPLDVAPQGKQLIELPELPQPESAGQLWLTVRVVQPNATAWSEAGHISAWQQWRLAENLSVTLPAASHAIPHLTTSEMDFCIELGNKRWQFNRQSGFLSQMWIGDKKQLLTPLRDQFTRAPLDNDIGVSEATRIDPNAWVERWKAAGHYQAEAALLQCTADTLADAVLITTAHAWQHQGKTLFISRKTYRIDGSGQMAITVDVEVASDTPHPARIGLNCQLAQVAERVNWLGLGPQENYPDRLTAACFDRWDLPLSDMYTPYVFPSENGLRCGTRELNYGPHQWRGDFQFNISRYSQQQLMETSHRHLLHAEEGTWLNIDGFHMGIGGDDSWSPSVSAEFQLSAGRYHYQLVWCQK

With COP(=O)(CCC(N)C(=O)O)Oc1cccc(CC(=O)O)c1 (stereo not shown) [GGsTop, reference compound] the “effect of inhibitor on the GGT enzymatic reaction of the model compound” value (GGT; inhibitor added at 100 μM) was “inhibited” and the “effect of GGT inhibitor on survival rate of cells treated with the GGT prodrug” value ([1]; CCK-8, FIG. 7) was “completely restored the survival rate”.
For OCC1O[C@@H](Oc2ccccc2CF)C(O)C(O)[C@H]1O (stereo partly shown) [compound 1], the survival rate (HEK/lac Z cells; HEK/lac Z cells, 50 μM, after 24 hours) was “did not drop at all”, the “difference in survival rate between high-expression and low-expression cells” value (HEK/lac Z cells; HEK/lac Z vs HEK293, up to 50 μM, 24 hours) was “no significant difference” and the survival rate (HEK293 cells) was “did not drop at all”. The “cleavage by β-Gal” value (β-Gal) was “cleaved”.
With NCC(=O)N1CCC[C@H]1C(=O)Nc1ccccc1CF [compound 2] the “cleavage by DPP-IV” value (DPP-IV) was “cleaved” and the “changes in cell viability between cells with high and low enzyme expression” value [2] was “changes in the cell viability were observed”.
With N[C@@H](CCC(=O)Nc1ccccc1CF)C(=O)O [compound 3] the “tumors on the mesentery (macro and fluorescence images)” value (SHIN3 cells) was “Tumors appear to be decreased overall”, the “cleavage by GGT” value (GGT; 100 μM compound, 10 U/mL GGT, 37° C., reaction product 2-aminobenzyl alcohol, FIG. 4) was “cleaved” and the “selective cell damage in coculture (EthD-1 dead cell staining)” value [3] was “selectively damages high-expression cells”. The “cell death (EthD-1 dead cell staining)” value [4] was “more cell death occurred in SHIN3 cells”, the “cell death by flow cytometry (EthD-1 dead staining)” value [5] was “selective cell death of SHIN3 cells” and the “changes in cell viability between cells with high and low enzyme expression” value ([1]; SHIN3 (high GGT) vs H226 (low GGT), 1-50 μM, 24 hours, FIG. 7) was “changes in the cell viability were observed”. The cell type selectivity ([1]; SHIN3 vs H226, CCK-8, FIG. 7) was “high cell type selectivity” and the “antitumor activity (CCK-8 assay)” value ([1]; concentration of 25 μM, FIG. 13) was “showed an effect”.

Source: patent US11655269B2, “Prodrug-type anticancer agent using cancer-specific enzymatic activity” (The University of Tokyo, priority 2018, dated 2023)
